Results on 23 molecules are retold here after patent US11939331B2, “Tricyclic heterocycles as FGFR inhibitors” (Incyte Corporation, priority 2021, dated 2024).

The structures appear in SMILES notation.

Sequence of wild-type un-phosphorylated FGFR3 protein (P22607 23-806): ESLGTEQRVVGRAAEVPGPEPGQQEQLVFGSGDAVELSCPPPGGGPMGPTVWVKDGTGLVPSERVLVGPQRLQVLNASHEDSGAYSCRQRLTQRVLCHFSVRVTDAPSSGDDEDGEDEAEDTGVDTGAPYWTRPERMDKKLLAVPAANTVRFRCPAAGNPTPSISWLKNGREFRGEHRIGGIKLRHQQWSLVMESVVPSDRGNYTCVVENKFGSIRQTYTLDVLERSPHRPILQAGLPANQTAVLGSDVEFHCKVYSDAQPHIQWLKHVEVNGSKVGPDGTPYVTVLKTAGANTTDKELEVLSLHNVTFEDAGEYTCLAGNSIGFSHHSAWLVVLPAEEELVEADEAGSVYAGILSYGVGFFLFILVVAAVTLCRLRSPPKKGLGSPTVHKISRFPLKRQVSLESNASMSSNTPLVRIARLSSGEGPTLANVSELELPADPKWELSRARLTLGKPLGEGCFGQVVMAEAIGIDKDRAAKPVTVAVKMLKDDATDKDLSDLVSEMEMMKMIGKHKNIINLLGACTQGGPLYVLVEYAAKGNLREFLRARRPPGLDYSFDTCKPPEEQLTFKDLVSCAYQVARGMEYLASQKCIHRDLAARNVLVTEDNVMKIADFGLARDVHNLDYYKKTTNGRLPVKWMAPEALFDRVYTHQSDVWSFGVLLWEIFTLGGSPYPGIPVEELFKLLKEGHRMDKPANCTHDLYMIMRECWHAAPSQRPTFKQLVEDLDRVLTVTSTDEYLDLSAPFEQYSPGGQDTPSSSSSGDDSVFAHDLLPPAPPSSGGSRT

This assay concerns the target wild-type un-phosphorylated FGFR3 protein (Homo sapiens, UniProt P22607). Description: FGFR Enzymatic Assay (FRET peptide phosphorylation).
Description: The inhibitor potency of the exemplified compounds was determined in an enzyme discontinuous assay that measures peptide phosphorylation using FRET measurements to detect product formation. Inhibitors were serially diluted in DMSO and a volume of 0.2 μL was transferred to the wells of a 384-well plate. A 5 μL/well volume of enzyme isoforms of FGFR (-1, -2, -3 wild-type and mutant isoforms, -4) including phosphorylated and un-phosphorylated proteins diluted in assay buffer (50 mM HEPES, 10 mM MgCl2, 1 mM EGTA, 0.01% Tween-20, 5 mM DTT, pH 7.5) was added to the plate and pre-incubated with inhibitor for 5 to 15 minutes at ambient temperature. Appropriate controls (enzyme blank and enzyme with no inhibitor) were included on the plate. The reaction was initiated by the addition of a 5 μL/well volume containing both biotinylated [sequence] peptide substrate (SEQ ID NO: 1) and ATP in assay buffer. The 10 μL/well reaction concentration of the peptide substrate was 500 nM whereas the ATP concentration was maintained near or below the ATP Km. The ATP Km values were pre-determined in a separate series of experiments. The reaction plate was incubated at 25° C. for 1 hr and the reactions were ended with the addition of 5 μL/well of quench solution (50 mM Tris, 150 mM NaCl, 0.5 mg/mL BSA, pH 7.8; 45 mM EDTA, 600 nM staurosporin, with Perkin Elmer Lance Reagents at 3.75 nM Eu-antibody PY20 and 180 nM APC-Streptavidin). The plate was allowed to equilibrate for ˜10 minutes at ambient temperature before scanning on a PheraStar plate reader (BMG Labtech) instrument.
Either GraphPad prism or XLfit was used to analyze the data. The IC50 values were derived by fitting the data to a four parameter logistic equation producing a sigmoidal dose-response curve with a variable Hill coefficient. Prism equation: Y=Bottom+(Top−Bottom)/(1+10^((Log IC50−X)*Hill slope)); XLfit equation: Y=(A+((B−A)/(1+((X/C)^D)))) where X is the logarithm of inhibitor concentration and Y is the response.
As a reminder, the IC50 is the concentration at which inhibition is half-maximal. Low values mean greater potency in that assay, high ones weaker potency in that assay. As to `NC(=O)c1c(-c2c(Cl)cccc2Cl)nc2c3cc(-c4ccc(C5CCS(=O)(=O)CC5)cc4)cnc3ccn12` [Example 13, 2-(2,6-Dichlorophenyl)-9-(4-(1,1-dioxidotetrahydro-2H-thiopyran-4-yl)phenyl)imidazo[2,1-f][1,6]naphthyridine-3-carboxamide], the IC50 is 0.1 to 1 nM.

In the case of `NC(=O)c1c(-c2c(Cl)cccc2Cl)nc2c3cc(-c4cnn(Cc5ccccc5)c4)cnc3ccn12` [Example 25, 9-(1-Benzyl-1H-pyrazol-4-yl)-2-(2,6-dichlorophenyl)imidazo[2,1-f][1,6]naphthyridine-3-carboxamide], the IC50 lay in the range of 0.1 to 1 nM.

In turn, `CC(C)(O)c1ccc(-c2cnc3ccn4c(C(N)=O)c(-c5c(Cl)cccc5Cl)nc4c3c2)cn1` [Example 50, 2-(2,6-Dichlorophenyl)-9-(6-(2-hydroxypropan-2-yl)pyridin-3-yl)imidazo[2,1-f][1,6]naphthyridine-3-carboxamide] displayed an IC50 of 0.1 to 1 nM.

On to `NC(=O)c1c(-c2c(Cl)cccc2Cl)nc2c3cc(-c4cnn(CC5(F)CCOCC5)c4)cnc3ccn12` [Example 8, 2-(2,6-Dichlorophenyl)-9-(1-((4-fluorotetrahydro-2H-pyran-4-yl)methyl)-1H-pyrazol-4-yl)imidazo[2,1-f][1,6]naphthyridine-3-carboxamide], for which the IC50 was less than 0.1 nM.

`NC(=O)c1c(-c2c(Cl)cccc2Cl)nc2c3cc(-c4ccc(N5CCS(=O)(=O)CC5)cc4)cnc3ccn12` [Example 14, 2-(2,6-Dichlorophenyl)-9-(4-(1,1-dioxidothiomorpholino)phenyl)imidazo[2,1-f][1,6]naphthyridine-3-carboxamide]: the IC50 is less than 0.1 nM.

`NC(=O)c1c(-c2c(Cl)cccc2Cl)nc2c3cc(-c4ccc(N5CCN(C(=O)CO)CC5)cc4)cnc3ccn12` [Example 18, 2-(2,6-Dichlorophenyl)-9-(4-(4-(2-hydroxyacetyl)piperazin-1-yl)phenyl)imidazo[2,1-f][1,6]naphthyridine-3-carboxamide] yielded an IC50 of less than 0.1 nM.

Molecule `CNC(=O)c1ccc(-c2cnc3ccn4c(C(N)=O)c(-c5c(Cl)cccc5Cl)nc4c3c2)cn1` [Example 52, 2-(2,6-Dichlorophenyl)-9-(6-(methylcarbamoyl)pyridin-3-yl)imidazo[2,1-f][1,6]naphthyridine-3-carboxamide] had an IC50 of 0.1 to 1 nM.

For `CC(=O)N1CCN(c2ccc(-c3cnc4ccn5c(C(N)=O)c(-c6c(Cl)cccc6Cl)nc5c4c3)cc2)CC1` [Example 17, 9-(4-(4-Acetylpiperazin-1-yl)phenyl)-2-(2,6-dichlorophenyl)imidazo[2,1-f][1,6]naphthyridine-3-carboxamide], the IC50 was less than 0.1 nM.

As to `CC(C)(O)Cn1cc(-c2cnc3ccn4c(C(N)=O)c(-c5c(Cl)cccc5Cl)nc4c3c2)cn1` [Example 2, 2-(2,6-Dichlorophenyl)-9-(1-(2-hydroxy-2-methylpropyl)-1H-pyrazol-4-yl)imidazo[2,1-f][1,6]naphthyridine-3-carboxamide], the IC50 is less than 0.1 nM.

As for `COCC(C)(C)n1cc(-c2cnc3ccn4c(C(N)=O)c(-c5c(Cl)cccc5Cl)nc4c3c2)cn1` [Example 35, 2-(2,6-Dichlorophenyl)-9-(1-(1-methoxy-2-methylpropan-2-yl)-1H-pyrazol-4-yl)imidazo[2,1-f][1,6]naphthyridine-3-carboxamide], the IC50 is less than 0.1 nM.

The molecule `NC(=O)c1c(-c2c(Cl)cccc2Cl)nc2c3cc(-c4cnn(CC(F)F)c4)cnc3ccn12` [Example 28, 2-(2,6-Dichlorophenyl)-9-(1-(2,2-difluoroethyl)-1H-pyrazol-4-yl)imidazo[2,1-f][1,6]naphthyridine-3-carboxamide] yielded an IC50 of less than 0.1 nM.

Molecule `N#CCCn1cc(-c2cnc3ccn4c(C(N)=O)c(-c5c(Cl)cccc5Cl)nc4c3c2)cn1` [Example 48, 9-(1-(2-Cyanoethyl)-1H-pyrazol-4-yl)-2-(2,6-dichlorophenyl)imidazo[2,1-f][1,6]naphthyridine-3-carboxamide] registered an IC50 of less than 0.1 nM.

In turn, `CC(c1ccnc(C#N)c1)n1cc(-c2cnc3ccn4c(C(N)=O)c(-c5c(Cl)cccc5Cl)nc4c3c2)cn1` (centres unmarked) [Example 12, 9-(1-(1-(2-Cyanopyridin-4-yl)ethyl)-1H-pyrazol-4-yl)-2-(2,6-dichlorophenyl)imidazo[2,1-f][1,6]naphthyridine-3-carboxamide] displayed an IC50 of 0.1 to 1 nM.

Molecule `NC(=O)c1cnc2c3cc(-c4cnn(C5CCOCC5)c4)cnc3ccn12` [Example 58, 9-(1-(Tetrahydro-2H-pyran-4-yl)-1H-pyrazol-4-yl)imidazo[2,1-f][1,6]naphthyridine-3-carboxamide] came in with an IC50 of 10 to 50 nM.

With `CN1CCN(CCn2cc(-c3cnc4ccn5c(C(N)=O)c(-c6c(Cl)cccc6Cl)nc5c4c3)cn2)CC1` [Example 46, 2-(2,6-Dichlorophenyl)-9-(1-(2-(4-methylpiperazin-1-yl)ethyl)-1H-pyrazol-4-yl)imidazo[2,1-f][1,6]naphthyridine-3-carboxamide], the IC50 is 0.1 to 1 nM.

Molecule `CC(C)(C(N)=O)n1cc(-c2cnc3ccn4c(C(N)=O)c(-c5c(Cl)cccc5Cl)nc4c3c2)cn1` [Example 3, 9-(1-(1-Amino-2-methyl-1-oxopropan-2-yl)-1H-pyrazol-4-yl)-2-(2,6-dichlorophenyl)imidazo[2,1-f][1,6]naphthyridine-3-carboxamide] yielded an IC50 of 0.1 to 1 nM.

Regarding `NC(=O)c1c(-c2c(Cl)cccc2Cl)nc2c3cc(-c4ccc(CN5CCN(C(=O)CO)CC5)cc4)cnc3ccn12` [Example 20, 2-(2,6-Dichlorophenyl)-9-(4-((4-(2-hydroxyacetyl)piperazin-1-yl)methyl)phenyl)imidazo[2,1-f][1,6]naphthyridine-3-carboxamide], the IC50 lay in the range of 0.1 to 1 nM.

`NC(=O)c1c(-c2c(Cl)cccc2Cl)nc2c3cc(-c4cnn(Cc5ccncn5)c4)cnc3ccn12` [Example 11, 2-(2,6-Dichlorophenyl)-9-(1-(pyrimidin-4-ylmethyl)-1H-pyrazol-4-yl)imidazo[2,1-f][1,6]naphthyridine-3-carboxamide]: the IC50 is less than 0.1 nM.

The molecule `CS(=O)(=O)CCn1cc(-c2cnc3ccn4c(C(N)=O)c(-c5c(Cl)cccc5Cl)nc4c3c2)cn1` [Example 26, 2-(2,6-Dichlorophenyl)-9-(1-(2-(methylsulfonyl)ethyl)-1H-pyrazol-4-yl)imidazo[2,1-f][1,6]naphthyridine-3-carboxamide] registered an IC50 of less than 0.1 nM.

`CN1CCN(c2ccc(-c3cnc4ccn5c(C(N)=O)c(-c6c(Cl)cccc6Cl)nc5c4c3)cc2)CC1` [Example 21, 2-(2,6-Dichlorophenyl)-9-(4-(4-methylpiperazin-1-yl)phenyl)imidazo[2,1-f][1,6]naphthyridine-3-carboxamide] gave an IC50 of less than 0.1 nM.

In turn, `NC(=O)c1c(-c2c(Cl)cccc2Cl)nc2c3cc(-c4ccc(C(=O)N5C[C@@H]6C[C@H]5CO6)cc4)cnc3ccn12` [Example 22, 9-(4-((1S,4S)-2-Oxa-5-azabicyclo[2.2.1]heptane-5-carbonyl)phenyl)-2-(2,6-dichlorophenyl)imidazo[2,1-f][1,6]naphthyridine-3-carboxamide] registered an IC50 of less than 0.1 nM.

`NC(=O)c1c(-c2c(Cl)cccc2Cl)nc2c3cc(-c4cn[nH]c4)cnc3ccn12` [Example 5, 2-(2,6-Dichlorophenyl)-9-(1H-pyrazol-4-yl)imidazo[2,1-f][1,6]naphthyridine-3-carboxamide] showed an IC50 of less than 0.1 nM.

Consider `CC(=O)N1CCN(Cc2ccc(-c3cnc4ccn5c(C(N)=O)c(-c6c(Cl)cccc6Cl)nc5c4c3)cc2)CC1` [Example 19, 9-(4-((4-Acetylpiperazin-1-yl)methyl)phenyl)-2-(2,6-dichlorophenyl)imidazo[2,1-f][1,6]naphthyridine-3-carboxamide], for which the IC50 was less than 0.1 nM.
